# Reference: paper PMC9822194, “Chemoselective Synthesis of Mannich Adducts from 1,4-Naphthoquinones and Profile as Autophagic Inducers in Oral Squamous Cell Carcinoma” (Molecules, 2022)
# Read-outs that look alike come from different tables or passages of the source.
# Legend:
# SCC-25 cells = assay: MTT cell viability assay, SCC25; type: cell-based, Human; details: Homo sapiens, SCC-25, 48 h, read-out: SCC25 IC50
# Protocol: (§1) Cells and reagents. Human SCC-4, SCC-9 and SCC-25 cells, derived from a human oral tongue SCC were obtained from the ATCC (CRL-1624; CRL-1629 and CRL-1628, respectively) and maintained at 1:1 DMEM/F12 (Dulbecco’s modified Eagle medium and Ham’s F12 medium; Gibco, Thermo Fisher, Waltham, MA, USA) supplemented with 10% (v/v) FBS (fetal bovine serum; Invitrogen, Thermo Fisher, Waltham, MA, USA) and 400 ng/mL hydrocortisone (Sigma-Aldrich Co., St. Louis, MO, USA). Primary normal human gingival fibroblasts were obtained from the ATCC (PCS-201-018), maintained in DMEM supplemented with 10% (v/v) FBS, and used in a maximum of 6 passages. Cells were grown in a humidified environment containing 5% CO2 at 37 °C. […] Carboplatin in water (Fauldcarbo®; Libbs Farmacêutica, São Paulo, SP, Brazil) was used as a standard anticancer compound.
# (§2) Cell viability assay (cytotoxicity) and stability assay. To assess cell viability, cells were grown in triplicate in 96-well plates (5 × 10^3 cells/well) until confluence when treated with the different compounds as in Machado et al.. Briefly, DMSO in the same concentrations was used as a 100% cell viability control. After 48 h, cells were incubated with 5 mg/mL MTT reagent (3-(4,5-dimethyl-2-thiazolyl)-2,5-diphenyl-2H-tetrazolium bromide) (Sigma-Aldrich Co., St. Louis, MO, USA) for 3.5 h. Formazan crystals were dissolved in MTT solvent (DMSO/methanol 1:1 v/v) and the absorbance at 560 nm was evaluated using an EPOCH microplate spectrophotometer (BioTek Instruments, Winooski, VT, USA) with background absorbance at 670 nm subtracted. Each of the eighteen compounds was tested at six or seven different concentrations, ranging from 0.3 µM to 200 µM in cancer cell lines (SCC-4, SCC-9 and SCC-25) and 0.4 µM to 300 µM in normal primary human gingival fibroblast.
# (§3) Statistical analysis, IC50 calculation. IC50 values for MTT assays were obtained by non-linear regression using the GraphPad Prism 5.0 software (GraphPad, San Diego, CA, USA) from at least three independent experiments. Data are presented as means ± SD. A dose-response (inhibitor) vs response curve using the least squares method was used to determine the IC50, SD and R2 of the data. The selectivity index was calculated as S.I. = IC50 of the compound in normal oral fibroblast cells/IC50 of the same compound for each oral cancer cell line (SCC-4, SCC-9 and SCC-25) and the mean was calculated when indicated.
# SCC-9 (OSCC cells) = assay: MTT cell viability assay (cytotoxicity), SCC9; type: cell-based, Human; details: for IC50: Homo sapiens, SCC-9, 48 h
# Protocol: as §1, §2, §3
# [1] = tested on: OSCC cell lines (SCC 4, SCC-9 and SCC-25); assay: MTT assay, mean over three OSCC cell lines and average selectivity index; type: cell-based, Human
# Protocol: as §2, §3
# SCC9 cells = assay: MTT assay with cell death inhibitors (ZVAD, necrostatin-1, 3-MA); type: cell-based, Human; details: SCC9, 3-MA 5000 µM
# Protocol: as §2, with “After 48 h, cells were incubated with 5 mg/mL MTT reagent (3-(4,5-dimethyl-2-thiazolyl)-2,5-diphenyl-2H-tetrazolium bromide) (Sigma-Aldrich Co., St.” left out
# SCC-4 cells = assay: MTT cell viability assay, SCC4; type: cell-based, Human; details: Homo sapiens, SCC-4, 48 h, read-out: SCC4 IC50
# Protocol: as §1, §2, §3
# [2] = tested on: normal human gingival fibroblasts; assay: MTT cell viability assay, normal fibroblasts; type: cell-based; details: Homo sapiens, Fibroblast, 48 h, read-out: Primary Gengival Fibroblast IC50
# Protocol: as §1, §2, §3
compound,measurement,setting,value
"CC(C)=CC[C@@H](O)C1=CC(=O)c2c(O)ccc(O)c2C1=O [Shikonin, reference compound]",IC50,SCC-25 cells,1500 nM
same,IC50,SCC-9 (OSCC cells); read-out: SCC9 IC50,1810 nM
same,IC50,SCC-9 (OSCC cells); read-out: SCC9—Oral Cancer IC50,1800 nM
same,Selective Index (S.I.),SCC-9 (OSCC cells); IC50 normal oral fibroblasts/IC50 SCC-9,0.95
same,IC50,"[1]; Homo sapiens, read-out: Oral Tumor Cells Mean IC50",1740 nM
same,Average S.I.,"[1]; average selectivity index over SCC-4, SCC-9, SCC-25 vs normal fibroblasts",0.98
same,Effect of autophagy inhibitor 3-MA on induced cell death,SCC9 cells,reduced cell death
same,IC50,SCC-4 cells,1910 nM
same,IC50,[2],1720 nM
